This note sets out measurements from patent US20110112032A1, “Regulation of Brain Natriuretic Peptide and Catecholamines for the Treatment of Cardiovascular Diseases” (priority 2005, published 2011).

Test [1] concerns rat myocardial infarct model. Format: in vivo.
Test [2] concerns the target norepinephrine transporter (Rattus norvegicus, UniProt Q63380). It counts as cell-based.
The mark [3] stands for this setting: animal group that received labetalol.

Several values for one entry are separate records, joined by “and”; a condition that tells them apart may be missing. Equal entries are not always repeated. Where two headings read alike, the source gives them in different places.

Sequence of norepinephrine transporter (Q63380 1-617): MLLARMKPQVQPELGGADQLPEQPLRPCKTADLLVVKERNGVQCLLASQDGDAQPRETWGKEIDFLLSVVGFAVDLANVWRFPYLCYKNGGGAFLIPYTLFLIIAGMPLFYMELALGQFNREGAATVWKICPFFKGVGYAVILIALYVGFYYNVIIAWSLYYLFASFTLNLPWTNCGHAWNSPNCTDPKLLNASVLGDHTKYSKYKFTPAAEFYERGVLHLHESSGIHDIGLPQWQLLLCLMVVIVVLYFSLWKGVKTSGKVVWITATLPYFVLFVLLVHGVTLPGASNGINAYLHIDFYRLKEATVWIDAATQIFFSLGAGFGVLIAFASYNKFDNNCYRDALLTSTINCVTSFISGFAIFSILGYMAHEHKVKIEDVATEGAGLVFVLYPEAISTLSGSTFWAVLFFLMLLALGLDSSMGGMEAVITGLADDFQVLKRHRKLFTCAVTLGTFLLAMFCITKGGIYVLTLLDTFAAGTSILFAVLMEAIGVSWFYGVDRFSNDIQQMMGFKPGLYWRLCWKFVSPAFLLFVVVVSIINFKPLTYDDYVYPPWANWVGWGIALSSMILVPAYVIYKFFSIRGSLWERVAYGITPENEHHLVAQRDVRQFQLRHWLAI

In the case of `CC(CCc1ccccc1)NCC(O)c1ccc(O)c(C(N)=O)c1` (stereo not shown) [Labetalol, labetalol], the “Infarct Size” value in test [1] (N = 6, DPDPE 200 ng/kg iv 30 min before occlusion, labetalol 2 mg/kg iv) was 16.2 ± 1.7 % of LV. Further, in test [1] (setting [3]), the “change in heart rate” value is on record as “mild increase” and the “change in mean blood pressure compared to the other groups” value is listed as “small reduction”. Moreover, in test [1] (rat, in vivo), the HR was 213 ± 1 bpm and 223 ± 1 bpm and 244 ± 2 bpm and 235 ± 2 bpm; the “Mean BP” value is 125 ± 2 mmHg and 100 ± 2 mmHg and 78 ± 4 mmHg and 81 ± 4 mmHg.

For the molecule `CNCCC(Oc1ccccc1OC)c1ccccc1` (stereo not shown) [nisoxetine], the “reduction of [3H]norepinephrine uptake” value in test [2] was 36±4%.

With `NC[C@H](O)c1ccc(O)c(O)c1` [norepinephrine], in test [2], the “inhibition of [3H] norepinephrine uptake” value is reported as 20% and the “reduction of [3H]norepinephrine uptake” value amounted to 20±5%.

As for [D-Pen^25]-enkephalin [DPDPE], in test [1] (rat, in vivo), the HR was 215 ± 1 bpm and 218 ± 1 bpm and 232 ± 1 bpm and 216 ± 1 bpm; the “Infarct Size” value is given as 6.6 ± 1.4 % of LV; the “Mean BP” value was 125 ± 1 mmHg and 116 ± 1 mmHg and 89 ± 2 mmHg and 96 ± 1 mmHg; the “infarct-size-limiting effect in rats pretreated with labetalol” value was “nearly abolished”. The “reduction of LV infarct size compared to control” value in test [1] (rat, in vivo, iv) is 53%.
